Data from the supplement of paper PMC10307832.

Key:
Assay in all cases: relative viability (nuclei count vs DMSO), 5 days (fraction); higher = more cells survive
Zebularine + Trametinib = compound: O=c1ncccn1[C@@H]1O[C@H](CO)[C@@H](O)[C@H]1O [Zebularine] + CC(=O)Nc1cccc(-n2c(=O)n(C3CC3)c(=O)c3c(Nc4ccc(I)cc4F)n(C)c(=O)c(C)c32)c1 [Trametinib] (partner 0.02 µM)
Summary of the method: (§1)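 Lung cancer cell lines, seeded in 1536-well plates, were treated the following day by pin tool with a single drug or with five library-drug doses (not always all listed) in √10 steps on top of a fixed anchor-drug dose. Cells were fixed and nuclei stained in one step after 5 days, and nuclei were counted. Relative viability is the nuclei count for treated wells divided by that for vehicle wells, reported as medians of duplicate plates.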

Zebularine + Foretinib = compound: O=c1ncccn1[C@@H]1O[C@H](CO)[C@@H](O)[C@H]1O [Zebularine] + COc1cc2c(Oc3ccc(NC(=O)C4(C(=O)Nc5ccc(F)cc5)CC4)cc3F)ccnc2cc1OCCCN1CCOCC1 [Foretinib] (partner 0.25 µM)
Summary of the method: as §1

Zebularine + Pictilisib = compound: O=c1ncccn1[C@@H]1O[C@H](CO)[C@@H](O)[C@H]1O [Zebularine] + CS(=O)(=O)N1CCN(Cc2cc3nc(-c4cccc5[nH]ncc45)nc(N4CCOCC4)c3s2)CC1 [Pictilisib] (partner 1 µM)
Summary of the method: as §1

BI-D1870 + Dasatinib = compound: CC(C)CCN1c2nc(Nc3cc(F)c(O)c(F)c3)ncc2N(C)C(=O)C1C [BI-D1870] + Cc1nc(Nc2ncc(C(=O)Nc3c(C)cccc3Cl)s2)cc(N2CCN(CCO)CC2)n1 [Dasatinib] (partner 0.075 µM)
Summary of the method: as §1

Row | Cell Line | relative viability (Zebularine + Trametinib; first compound 1 µM) | relative viability (Zebularine + Trametinib; first compound 3.162 µM) | relative viability (Zebularine + Trametinib; first compound 10 µM) | relative viability (Zebularine + Trametinib; first compound 31.62 µM) | relative viability (Zebularine + Trametinib; first compound 100 µM) | relative viability (Zebularine + Foretinib; first compound 1 µM) | relative viability (Zebularine + Foretinib; first compound 3.162 µM) | relative viability (Zebularine + Foretinib; first compound 10 µM) | relative viability (Zebularine + Foretinib; first compound 31.62 µM) | relative viability (Zebularine + Foretinib; first compound 100 µM) | relative viability (Zebularine + Pictilisib; first compound 1 µM) | relative viability (Zebularine + Pictilisib; first compound 3.162 µM) | relative viability (Zebularine + Pictilisib; first compound 10 µM) | relative viability (Zebularine + Pictilisib; first compound 31.62 µM) | relative viability (Zebularine + Pictilisib; first compound 100 µM) | relative viability (BI-D1870 + Dasatinib; first compound 0.04 µM) | relative viability (BI-D1870 + Dasatinib; first compound 0.1265 µM) | relative viability (BI-D1870 + Dasatinib; first compound 0.4 µM) | relative viability (BI-D1870 + Dasatinib; first compound 1.265 µM) | relative viability (BI-D1870 + Dasatinib; first compound 4 µM)
1 | HOP-62 | 0.456 | 0.435 | 0.282 | 0.244 | 0.191 | 1.28 | 1.15 | 0.335 | 0.252 | 0.186 | 0.579 | 0.608 | 0.284 | 0.287 | 0.175 | 0.707 | 0.675 | 0.603 | 0.66 | 0.524
2 | CAL-12T | 0.381 | 0.338 | 0.309 | 0.328 | 0.319 | 1.2 | 1.09 | 0.931 | 1.15 | 0.671 | 0.509 | 0.398 | – | 0.482 | 0.364 | 0.489 | 0.272 | 0.411 | 0.512 | 0.176
3 | NCI-H520 | 0.651 | 0.698 | 0.544 | 0.314 | 0.229 | 0.895 | 0.742 | 0.419 | 0.395 | 0.243 | 0.362 | 0.308 | 0.204 | 0.268 | 0.152 | 0.207 | 0.189 | 0.235 | 0.198 | 0.186
4 | NCI-H1755 | 0.885 | 0.766 | 0.726 | 0.761 | 0.61 | 0.925 | 0.918 | 0.854 | 0.992 | 0.591 | 0.554 | 0.433 | 0.326 | 0.484 | 0.36 | 0.511 | 0.408 | 0.407 | 0.567 | 0.442
5 | NCI-H2023 | 0.595 | 0.636 | 0.367 | 0.523 | 0.308 | 0.843 | 0.891 | 0.713 | 0.635 | 0.361 | 0.262 | 0.272 | 0.215 | 0.272 | 0.201 | 0.619 | 0.378 | 0.577 | 0.617 | 0.426
6 | NCI-H2009 | 0.294 | 0.276 | 0.274 | 0.243 | 0.197 | 1.28 | 1.25 | 0.919 | 0.973 | 0.373 | 0.838 | 0.782 | 0.614 | 0.68 | 0.37 | 0.325 | 0.212 | 0.304 | 0.248 | 0.141
